{"source": "patent US6884600B1", "about": "“Protein phosphatase-1 catalytic subunit interactions” (Medical Research Council London, priority 1996, dated 2005)", "key": {"[1]": {"test_system": "PP1 and PP2A", "settings": "refs [17], [19]; cited from earlier work"}, "[2]": {"test_system": "PP1GL", "test": "Phosphorylase phosphatase activity of PP1GL (hepatic glycogen particles)", "format": "biochemical, rat", "procedure": "Hepatic glycogen particles were diluted in assay buffer to 0.6 phosphorylase phosphatase (PhP) mU per ml, incubated for 15 minutes at 30° C. with GM-(G63-T93) (closed circles), GM-(G63-K80) (open circles) or GM-(G63-N75) (closed triangles) and assayed as described in Example 1. The open triangles show the effect of GM-(G63-N75) which had been phosphorylated at Ser67 by PKA (pGM-(G63-N75)). Similar results were obtained in four experiments.\n(A) Hepatic glycogen protein particles containing PP1-GL were diluted and incubated for 15 min at 30° C. with the indicated concentrations of either M110[M1-F38] (open circles) or M110[M1-K35] (closed circles) and the phosphatase reactions were initiated by addition of ^32P-labelled glycogen phosphorylase. The results are expressed as a percentage of the activity determined in control incubations where the M110 peptides were omitted. Similar results were obtained in three separate experiments. (B) The experiment was carried out as in (A), except that the peptide GM[G63-N75] (“wild type”, WT) and variants in which either Val 66 (V66A) (closed triangles) or Phe 68 (F68A) (closed circles) were changed to Ala, were used instead of the M110 peptides. Similar results were obtained in three separate experiments.\n(§1) The myosin-associated form of PP1 (PP1M) was from chicken gizzard and the glycogen-associated form of PP1 (PP1G) from rabbit skeletal muscle. The β isoform of PP1c was released from PP1G by incubation for 2 hours in 2M LiBr, then purified by gel-filtration on a 30×1 cm column of Superose 12 (Pharmacia, Milton Keynes, U.K.) in the presence of 0.5M LiBr. Glycogen protein particles from rat liver were used as the source of hepatic PP1G Digoxygenin-labelled PP1c (γ1-isoform, hereafter termed PP1) was prepared as in [9]. GL was expressed in E. coli as a glutathione-S-transferase (GST) fusion protein [7], termed GST-GL. The catalytic subunit of PP2A from bovine heart (PP2AC) was provided by Dr R. MacKintosh in this Unit. The phosphorylatable myosin light chain (MLC20) and heavy meromyosin from chicken gizzard were a gift from Dr M. Ikebe (Case Western Reserve University, Cleveland, USA). Thrombin and benzamidine-Agarose were purchased from Sigma (Poole, UK).\n(§2) ^32P-labelled rabbit skeletal muscle phosphorylase a (containing 1.0 mol phosphate per mol subunit) was prepared by phosphorylation with phosphorylase kinase, ^32P-labelled rabbit skeletal muscle glycogen synthase (containing 1.5 mol/mol subunit in the sites 3 region) was prepared by phosphorylation with glycogen synthase kinase-3 [24]). ^32P-labelled chicken gizzard MLC20 and ^32P-labelled chicken gizzard heavy meromyosin (containing 1.0 mol phosphate per mol subunit) were prepared by phosphorylation with smooth muscle myosin light chain kinase. The dephosphorylation of phosphorylase a (10 μM), glycogen synthase (1 μM) and MLC20 (1 μM) and heavy meromyosin (1 μM) was carried out as in [24]. One unit of activity (U) was that amount which released […] of phosphate in one minute.\n(§3) PP1c was isolated from the rabbit skeletal muscle PP1-GM complex as described previously (Johnson et al, 1996). Glycogen particles isolated from rat liver (Schelling el al, 1988) served as the source of PP1-GL. The dephosphorylation of glycogen phosphorylase (10 μM) and the isolated MLC20 of smooth muscle myosin (1 μM) by PP1c was carried out as described previously (Cohen et al., 1988; Alessi et al., 1992)."}, "[3]": {"biological_target": "T1, PP1c (Oryctolagus cuniculus, UniProt P62143)", "T1 construct": "from tissue; host or cells: rabbit skeletal muscle (PP1G dissociated with LiBr)", "T1 sequence (P62143 whole entry)": "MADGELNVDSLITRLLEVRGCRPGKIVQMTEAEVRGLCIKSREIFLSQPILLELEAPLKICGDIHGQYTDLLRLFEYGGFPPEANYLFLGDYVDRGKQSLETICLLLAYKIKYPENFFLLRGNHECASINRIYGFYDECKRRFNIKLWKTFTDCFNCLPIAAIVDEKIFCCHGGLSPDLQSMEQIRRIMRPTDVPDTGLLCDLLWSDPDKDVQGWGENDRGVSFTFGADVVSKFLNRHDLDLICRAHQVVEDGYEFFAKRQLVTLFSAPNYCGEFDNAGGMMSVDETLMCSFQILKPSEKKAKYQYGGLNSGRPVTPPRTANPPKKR", "test": "Phosphorylase phosphatase activity of PP1c", "format": "biochemical, rabbit", "procedure": "(§4) A,B; Effects of M110-(M1-E309) (closed circles), M110-(M1-F38) (open circles) and M110-(D39-E309) (open triangles) on the MLC20 phosphatase […] and phosphorylase phosphatase (B) activities of PP1c were measured after incubating PP1c for 15 minutes at 30° C. with each fragment. The results are presented as a percentage of those obtained in experiments where the M110 fragments were omitted.\n(§5) C,D; The effect of M110-(M1-A150) (open circles) and M110-(L24-Y496) (closed circles) on the MLC20 phosphatase (C) and phosphorylase phosphatase (D) activities of PP1c were measured as in A,B.\n(B) The phosphorylase phosphatase activity of PP1c was assayed as in A in the presence or absence of 1 μM GM-(G63-T93) and 1.0 nM M110-(M1-E309). The results are presented (SEM for three experiments) as a percentage of the PP1c activity measured in the absence of GM-(63-T93), M110-(M1-F38) or M110-(M1-E309).\nas §1, §2, §3"}, "[4]": {"biological_target": "PP1c (γ1-isoform) (Homo sapiens, UniProt P36873)", "sequence (P36873 whole entry, the tested form may be a part, canonical isoform)": "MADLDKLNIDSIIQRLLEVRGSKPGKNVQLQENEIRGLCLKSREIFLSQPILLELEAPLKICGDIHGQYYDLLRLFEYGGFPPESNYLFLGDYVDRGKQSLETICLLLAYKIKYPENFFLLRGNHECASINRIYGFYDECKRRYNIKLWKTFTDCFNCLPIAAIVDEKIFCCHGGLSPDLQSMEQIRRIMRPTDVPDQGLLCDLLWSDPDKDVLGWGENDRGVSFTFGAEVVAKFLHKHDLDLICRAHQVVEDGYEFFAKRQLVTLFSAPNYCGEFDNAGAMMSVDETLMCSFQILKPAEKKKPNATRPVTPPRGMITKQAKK", "test": "Far Western: GST-GM fusion proteins probed with digoxygenin-labelled PP1γ", "format": "binding", "settings": "GST-fusion proteins on blot probed with digoxygenin-labelled PP1γ", "excerpt": "GST-GM fusion proteins were electrophoresed on 10% SDS/polyacrylamide gels and stained with Coomassie blue (lanes 1-3) or, after transfer to nitrocellulose, probed with digoxygenin-labelled PP1γ (lanes 4-6) as in [9]. Lanes 1 and 4, GST-GM-(E2-D118); Lanes 2 and 5, GST-GM-(H100-P350); Lanes 3 and 6, GST. The positions of the marker proteins glycogen phosphorylase (97 kDa), bovine serum albumin (66 kDa), ovalbumin (43 kDa), carbonic anhydrase (29 kDa) and soybean trypsin inhibitor (20 kDa) are indicated.\nas §1, with “Thrombin and benzamidine-Agarose were purchased from Sigma (Poole, UK).” left out"}, "[5]": {"biological_target": "T1, PP1c", "test": "MLC20 (myosin P-light chain) phosphatase activity of PP1c", "format": "biochemical", "procedure": "as §4, §5\n(A) The MLC20 phosphatase activity of PP1c was assayed after incubation for 15 minutes at 30° C. in the presence or absence of 1 μM GM-(G63-T93) and either 0.1 μM M110-(M1-F38) or 0.1 nM M110-(M1-E309).\n(1-38, open circles) or M110[M1-K35] (1-35, closed circles) were incubated with PP1c for 15 min at 30° C. and reactions started with the ^32P-labelled MLC20 substrate. The results are expressed as a % of the activity determined in control incubations where the M110 peptides were omitted (100%). Similar results were obtained in three separate experiments.\nas §1, §2, §3\n^32P-labelled myosin P-light chains containing 1.0 mol phosphate per mol subunit was prepared by phosphorylation with smooth muscle myosin light chain kinase. The dephosphorylation of myosin P-light chain (1 μM) was carried out as in [4] and one unit of activity (U) was that amount which catalysed the release of 1 μmole of phosphate in one min. When assaying PP1M in immunoprecipitates from the myofibrillar extracts, the tubes were shaken continuously and 3 nM okadaic acid was included to inhibit any PP2A present."}, "[6]": {"biological_target": "T1, PP1c", "test": "Glycogen synthase phosphatase activity of PP1c", "format": "biochemical, rabbit", "procedure": "The glycogen synthase phosphatase activity of PP1c was measured after a 15 minute incubation at 30° C. with the indicated concentrations of M110-(M1-F38) and M110-(M1-E309). Similar results were obtained in three different experiments.\nas §2"}, "[7]": {"biological_target": "T1, PP1c", "test": "Dephosphorylation of heavy meromyosin by PP1c", "format": "biochemical, rabbit", "settings": "data not shown", "procedure": "as §2"}}, "note": "Read-outs that look alike come from different tables or passages of the source. No end group written: not given here."}
{"molecule": "C=C1[C@@H](O)[C@@H]2O[C@]3(CC[C@H](/C=C/[C@@H](C)[C@@H]4CC(C)=C[C@@]5(O[C@H](C[C@@](C)(O)C(=O)O)CC[C@H]5O)O4)O3)CC[C@H]2O[C@@H]1[C@@H](O)C[C@H](C)[C@H]1O[C@@]2(CCCCO2)CC[C@H]1C", "note": "[okadaic acid]", "values": [{"measurement": "relative potency as inhibitor of PP1 and PP2A", "setting": "[1]", "result": "a much more potent inhibitor of PP2A than PP1"}]}
{"molecule": "CO[C@H]([C@H](O)CC(=O)[C@@H](C)[C@@H](O)CC[C@@H](C)[C@@H]1O[C@]2(CC[C@@H](C)[C@H](CC[C@H](C)C(C)=O)O2)CC[C@@H]1C)[C@H](OC(=O)C[C@@H](O)C1=C(C)C(=O)OC1=O)C(C)C", "note": "[tautomycin]", "values": [{"measurement": "relative potency as inhibitor of PP1 and PP2A", "setting": "[1]", "result": "a much more potent inhibitor of PP1 than PP2A"}]}
{"molecule": "GM-(E81-T93): peptide generated by cleaving GM-(G63-T93) with Lys-C endoproteinase (DCWELPSASTTFD; UniProt Q16821 81-93, looked up, fragment)", "values": [{"measurement": "effect on the phosphorylase phosphatase activity of PP1GL", "setting": "[2]; at concentrations up to 10 μM", "result": "no effect"}, {"measurement": "effect on the phosphorylase phosphatase activity of PP1c", "setting": "[3]; at concentrations up to 10 μM", "result": "no effect"}]}
{"molecule": "GM-(G63-N75): synthetic 13 residue peptide, residues 63-75 of GM (GRRVSFADNFGFN)", "values": [{"measurement": "effect on the phosphorylase phosphatase activity of PP1GL", "setting": "[2]; hepatic glycogen particles containing PP1-GL", "result": "increased the phosphorylase phosphatase activity of PP1GL, but were less effective than GM-(G63-T93)"}, {"measurement": "effect on the phosphorylase phosphatase activity of PP1c", "setting": "[3]; at concentrations up to 10 μM", "result": "did not increase the phosphorylase phosphatase activity of PP1c significantly"}]}
{"molecule": "GST: glutathione-S-transferase [reference compound]", "values": [{"measurement": "effect on the phosphorylase phosphatase activity of PP1c", "setting": "[3]", "result": "no effect"}, {"measurement": "interaction with PP1 in Far Western experiments", "setting": "[4]", "result": "did not interact with PP1c"}, {"measurement": "effect on the MLC20 phosphatase activity of PP1c", "setting": "[5]", "result": "no effect"}]}
{"molecule": "MKMADAKQKRNEQLKRWIGSETDLEPPVVKRQKTKVKF [M110-(M1-F38)]", "values": [{"measurement": "displacement of GL from PP1c", "setting": "[2]", "result": "capable of displacing GL from PP1GL"}, {"measurement": "increase in the phosphorylase phosphatase activity of PP1GL", "setting": "[2]; 10 μM peptide", "result": 3.5, "unit": "fold"}, {"measurement": "effect on the dephosphorylation of glycogen synthase by PP1c", "setting": "[6]", "result": "greatly enhanced"}, {"measurement": "effect on the phosphorylase phosphatase activity of PP1c", "setting": "[3]", "result": "did not inhibit the phosphorylase phosphatase activity of PP1c"}, {"measurement": "effect on the phosphorylase phosphatase activity of PP1c", "setting": "[3]; each peptide individually, at concentrations up to 1 μM", "result": "no effect"}, {"measurement": "effect on the dephosphorylation of heavy meromyosin by PP1c", "setting": "[7]", "result": "stimulated the dephosphorylation of heavy meromyosin in a similar manner to the dephosphorylation of MLC20"}, {"measurement": "EC50", "setting": "[5]", "result": 10, "unit": "nM"}, {"measurement": "concentration needed to modulate the specificity of PP1c compared to thrombin-cleaved M110-(M1-E309)", "setting": "[5]", "result": "at least 100 fold higher"}, {"measurement": "effect on the MLC20 phosphatase activity of PP1c", "setting": "[5]", "result": "stimulate the MLC20 phosphatase activity of PP1c to the same extent as M110-(M1-E309)"}, {"measurement": "increase in PP1c activity towards MLC20 (maximal activation)", "setting": "[5]", "result": 3, "unit": "fold"}, {"measurement": "peptide concentration at maximal activation of the myosin light chain phosphatase activity of PP1c", "setting": "[5]", "result": 1, "unit": "µM"}]}
